These results are taken from US12075697B2, “Inert solution-processable molecular chromophores for organic electronic devices” (The Regents of the University of California, priority 2012, dated 2024).

What all share (type): physicochemical
Data set [1] in a line: Acid sensitivity: solution absorption profile as function of trifluoroacetic acid concentration. The settings on record: trifluoroacetic acid in chloroform, up to ten equivalents. From the text:
To probe acid sensitivity, the solution absorption profiles of p-DTS(FBTTh2)2 (see Scheme 1, above) and d-DTS(PTTh2)2
[drawing 71] a pyridine-containing analog, were monitored as function of concentration of trifluoroacetic acid.

Data set [2] is described as follows: UV-visible absorption spectroscopy. The settings on record: for optical band gap: from λonset. As to the method:
(§1) Optical properties were investigated using UV-visible absorption spectroscopy. […] Solution cyclic voltammetry measurements indicated the highest occupied molecular orbital (HOMO) and lowest unoccupied molecular orbital (LUMO) were −5.12 and −3.34 eV, respectively, and line up appropriately with the frontier molecular orbitals of common fullerene acceptors.
UV-vis: UV-visible spectroscopy were recorded using either a Beckman Coulter DU 800 series or Perkin Elmer Lambda 750 spectrophotometer at room temperature unless otherwise noted. All solution UV-vis experiments were run in CHCl3. Films were prepared by spin-coating CHCl3 or chlorobenzene solutions onto glass substrates. Films were annealed directly on a hot plate for 2 minutes.

Data set [3] in a line: Solution cyclic voltammetry (HOMO/LUMO levels). How it is done: as §1
Electrochemistry: All electrochemical measurements were performed using CHI instrument model 730B in a standard three-electrode, one compartment configuration equipped with Ag/AgCl electrode, Pt wire and Glassy carbon electrode (dia. 3 mm), as the pseudo reference, counter electrode and working electrode respectively. Glassy carbon electrodes were polished with alumina. The cyclic voltammetry (CV) experiments were performed in anhydrous dichloromethane solution with ˜0.1 M tetrabutylammonium hexafluorophosphate (TBAPF6) as the supporting electrolyte at scan rate 50 mV/s unless otherwise stated. All electrochemical solutions were purged with dry Ar for 15 minutes to deoxygenate the system. Solution CV measurements were carried out with a small molecule concentration of ˜1 mg/mL in CH2Cl2. Ferrocene was used as an internal standard. The HOMO and LUMO levels were obtained by correlating the onsets (Eox^Fc/Fc+, Erd^Fc/Fc+) to the normal hydrogen electrode (NHE), assuming HOMO of Fc/Fc^+ to be 4.88 eV.

Take `CCCCCCc1ccc(-c2ccc(-c3cc(F)c(-c4cc5c(s4)-c4sc(-c6c(F)cc(-c7ccc(-c8ccc(CCCCCC)s8)s7)c7nsnc67)cc4[Si]5(CC(CC)CCCC)CC(CC)CCCC)c4nsnc34)s2)s1` (stereo not drawn) [p-DTS(FBTTh2)2, 7,7′-(4,4-bis(2-ethylhexyl)-4H-silolo[3,2-b:4,5-b′]dithiophene-2,6-diyl)bis(6-fluoro-4-(5′-hexyl-[2,2′-bithiophen]-5-yl)benzo[c][1,2,5]thiadiazole)]: the “change of absorption spectrum on addition of acid” value in data set [1] was “remains effectively unchanged”. In data set [2] (solid state (thin film)), this compound returned a λmax of 678 nm and a λonset of 800 nm. Besides, the optical band gap in data set [2] (solid state) is on record as 1.55 eV. Moreover, in data set [2] (solution (chloroform)), the λmax worked out at 590 nm, the λonset amounted to 670 nm and the optical band gap amounted to 1.85 eV. In addition, in data set [3], the “highest occupied molecular orbital (HOMO)” value was −5.12 eV and the “lowest unoccupied molecular orbital (LUMO)” value is −3.34 eV.
